{"source": "ChEMBL document CHEMBL4311992", "about": "“Discovery of 3-(((9H-purin-6-yl)amino)methyl)-4,6-dimethylpyridin-2(1H)-one derivatives as novel tubulin polymerization inhibitors for treatment of cancer” (Eur J Med Chem, 2019)", "key": {"[1]": {"molecular_target": "Transient receptor potential cation channel subfamily M member 7 (Homo sapiens) (UniProt Q96QT4)", "sequence (Q96QT4 whole entry)": "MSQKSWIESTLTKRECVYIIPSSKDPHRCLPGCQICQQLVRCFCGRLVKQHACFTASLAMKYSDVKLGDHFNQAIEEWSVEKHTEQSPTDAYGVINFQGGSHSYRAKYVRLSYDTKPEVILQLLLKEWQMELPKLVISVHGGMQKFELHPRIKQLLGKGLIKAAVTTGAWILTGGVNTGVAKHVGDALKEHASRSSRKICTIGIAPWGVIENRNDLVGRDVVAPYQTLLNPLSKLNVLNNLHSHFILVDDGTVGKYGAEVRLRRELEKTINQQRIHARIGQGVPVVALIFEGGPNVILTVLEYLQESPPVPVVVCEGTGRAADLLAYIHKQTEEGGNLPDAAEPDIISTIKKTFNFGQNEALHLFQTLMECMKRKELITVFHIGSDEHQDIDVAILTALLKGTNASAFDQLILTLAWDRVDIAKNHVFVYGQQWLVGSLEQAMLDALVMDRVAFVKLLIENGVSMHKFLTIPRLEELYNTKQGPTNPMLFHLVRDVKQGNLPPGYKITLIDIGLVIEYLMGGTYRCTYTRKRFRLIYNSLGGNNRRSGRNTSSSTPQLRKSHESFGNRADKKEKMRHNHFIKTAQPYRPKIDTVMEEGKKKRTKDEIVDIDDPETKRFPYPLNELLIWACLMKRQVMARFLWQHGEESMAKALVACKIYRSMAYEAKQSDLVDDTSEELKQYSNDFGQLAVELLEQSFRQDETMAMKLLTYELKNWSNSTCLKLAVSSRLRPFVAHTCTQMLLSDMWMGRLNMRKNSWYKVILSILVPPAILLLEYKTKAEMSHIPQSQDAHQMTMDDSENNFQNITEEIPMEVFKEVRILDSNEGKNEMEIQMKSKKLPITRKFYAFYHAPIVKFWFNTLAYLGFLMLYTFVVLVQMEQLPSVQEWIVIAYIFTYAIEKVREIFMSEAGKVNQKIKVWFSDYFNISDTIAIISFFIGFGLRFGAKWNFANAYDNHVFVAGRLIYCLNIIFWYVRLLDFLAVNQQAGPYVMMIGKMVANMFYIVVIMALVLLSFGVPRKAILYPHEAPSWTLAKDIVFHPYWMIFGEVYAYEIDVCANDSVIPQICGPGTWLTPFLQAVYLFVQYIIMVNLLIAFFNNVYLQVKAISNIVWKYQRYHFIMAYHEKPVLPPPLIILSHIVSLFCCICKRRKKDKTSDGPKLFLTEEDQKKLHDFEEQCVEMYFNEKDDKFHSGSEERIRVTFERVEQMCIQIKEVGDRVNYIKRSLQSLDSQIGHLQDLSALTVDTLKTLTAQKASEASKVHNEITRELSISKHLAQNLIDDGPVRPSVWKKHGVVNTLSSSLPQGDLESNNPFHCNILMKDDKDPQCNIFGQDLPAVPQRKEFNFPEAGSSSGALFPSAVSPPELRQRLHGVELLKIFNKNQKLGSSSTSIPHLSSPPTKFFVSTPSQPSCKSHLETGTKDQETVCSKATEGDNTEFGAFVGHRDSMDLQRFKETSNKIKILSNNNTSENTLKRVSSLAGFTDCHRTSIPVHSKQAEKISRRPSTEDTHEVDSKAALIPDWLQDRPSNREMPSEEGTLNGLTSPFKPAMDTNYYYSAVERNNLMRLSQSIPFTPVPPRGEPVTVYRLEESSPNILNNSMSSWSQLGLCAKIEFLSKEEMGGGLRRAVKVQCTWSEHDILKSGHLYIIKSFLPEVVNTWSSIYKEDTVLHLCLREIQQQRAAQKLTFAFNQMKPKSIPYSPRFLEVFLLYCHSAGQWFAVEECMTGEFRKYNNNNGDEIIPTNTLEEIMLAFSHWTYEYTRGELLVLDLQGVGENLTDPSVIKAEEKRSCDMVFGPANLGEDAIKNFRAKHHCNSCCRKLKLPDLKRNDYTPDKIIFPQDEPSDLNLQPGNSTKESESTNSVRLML", "assay": "Inhibition of recombinant human CHAK1 (1180 to end residues) assessed as residual activity at 10 uM using myelin basic protein as substrate measured after 40 mins in presence of [gamma33P]ATP by scintillation counting method"}, "[2]": {"molecular_target": "Mitogen-activated protein kinase kinase kinase kinase 5 (Homo sapiens) (UniProt Q9Y4K4)", "assay": "Inhibition of recombinant full-length human MAP4K5 assessed as residual activity at 10 uM using myelin basic protein as substrate measured after 40 mins in presence of [gamma33P]ATP by scintillation counting method"}, "[3]": {"test_system": "Serine/threonine-protein kinase Nek4 (Homo sapiens), P51957 [P225A]", "assay": "Inhibition of recombinant full-length human NEK4 P225A mutant assessed as residual activity at 10 uM using myelin basic protein as substrate measured after 40 mins in presence of [gamma33P]ATP by scintillation counting method"}, "[4]": {"molecular_target": "Serine/threonine-protein kinase PAK 4 (Homo sapiens) (UniProt O96013)", "assay": "Inhibition of recombinant human PAK4 (295 to end residues) assessed as residual activity at 10 uM using myelin basic protein as substrate measured after 40 mins in presence of [gamma33P]ATP by scintillation counting method"}, "[5]": {"test_system": "Angiopoietin-1 receptor (Homo sapiens), Q02763 [Q939H,Q940H,R849W]", "assay": "Inhibition of human Tie2 Q939H/Q940H/R849W mutant (771 to end residues) using EFPIYDFLPAKKK as substrate measured after 40 mins in presence of [gamma33P]ATP by scintillation counting method", "set-up": "scale not given: the % may be the effect or the level left"}, "[6]": {"molecular_target": "Serine/threonine-protein kinase WNK1 (Homo sapiens) (UniProt Q9H4A3)", "assay": "Inhibition of human WNK1 (1 to 491 residues) using myelin basic protein as substrate measured after 120 mins in presence of [gamma33P]ATP by scintillation counting method", "set-up": "scale not given: the % may be the effect or the level left"}, "[7]": {"test_system": "HCT-116", "assay": "Induction of apoptosis in human HCT116 cells assessed as necrotic cells at 50 nM measured after 48 hrs by Annexin V-FITC/propidium iodide staining-based flow cytometry (reference value: 1.16%)", "format": "functional"}, "[8]": {"molecular_target": "Serine/threonine-protein kinase TAO1 (Homo sapiens) (UniProt Q7L7X3)", "assay": "Inhibition of human TAO1 (1 to 327 residues) using myelin basic protein as substrate measured after 40 mins in presence of [gamma33P]ATP by scintillation counting method", "set-up": "scale not given: the % may be the effect or the level left"}, "[9]": {"molecular_target": "Citron Rho-interacting kinase (Homo sapiens) (UniProt O14578)", "assay": "Inhibition of recombinant human CRIK assessed as residual activity at 10 uM using KKLRRTLSVA as substrate measured after 120 mins in presence of [gamma33P]ATP by scintillation counting method"}, "[10]": {"molecular_target": "Dual specificity protein kinase CLK3 (Homo sapiens) (UniProt P49761)", "sequence (P49761 whole entry, looked up)": "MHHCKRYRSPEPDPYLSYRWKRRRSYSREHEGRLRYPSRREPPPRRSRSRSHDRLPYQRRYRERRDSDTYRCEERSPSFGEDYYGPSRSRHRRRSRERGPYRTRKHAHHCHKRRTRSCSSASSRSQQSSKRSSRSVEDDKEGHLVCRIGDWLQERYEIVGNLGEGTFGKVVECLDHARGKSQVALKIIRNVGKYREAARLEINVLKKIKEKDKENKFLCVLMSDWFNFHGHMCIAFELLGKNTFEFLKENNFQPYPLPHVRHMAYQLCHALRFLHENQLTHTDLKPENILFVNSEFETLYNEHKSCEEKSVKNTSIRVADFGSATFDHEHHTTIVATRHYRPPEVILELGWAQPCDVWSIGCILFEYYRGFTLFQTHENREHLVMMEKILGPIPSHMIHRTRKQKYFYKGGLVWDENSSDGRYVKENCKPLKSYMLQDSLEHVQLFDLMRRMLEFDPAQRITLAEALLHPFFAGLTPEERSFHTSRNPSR", "assay": "Inhibition of recombinant full-length human CLK3 assessed as residual activity at 10 uM using ERMRPRKRQGSVRRRV as substrate measured after 40 mins in presence of [gamma33P]ATP by scintillation counting method"}, "[11]": {"test_system": "Eukaryotic elongation factor 2 kinase (Homo sapiens), O00418 [H23R]", "assay": "Inhibition of recombinant human EEF2K H23R mutant (2 to end residues) assessed as residual activity at 10 uM using RKKFGESEKTKTKEFL as substrate measured after 40 mins in presence of [gamma33P]ATP by scintillation counting method"}, "[12]": {"molecular_target": "Mitogen-activated protein kinase kinase kinase kinase 3 (Homo sapiens) (UniProt Q8IVH8)", "assay": "Inhibition of recombinant human MAP4K3 (1 to 291 residues) assessed as residual activity at 10 uM using RLGRDKYKTLRQIRQ as substrate measured after 40 mins in presence of [gamma33P]ATP by scintillation counting method"}, "[13]": {"molecular_target": "Serine/threonine-protein kinase tousled-like 2 (Homo sapiens) (UniProt Q86UE8)", "assay": "Inhibition of human TLK2 (387 to end residues) using casein as substrate measured after 40 mins in presence of [gamma33P]ATP by scintillation counting method", "set-up": "scale not given: the % may be the effect or the level left"}, "[14]": {"molecular_target": "Dual specificity tyrosine-phosphorylation-regulated kinase 2 (Homo sapiens) (UniProt Q92630)", "assay": "Inhibition of recombinant full-length human DYRK2 assessed as residual activity at 10 uM using casein as substrate measured after 40 mins in presence of [gamma33P]ATP by scintillation counting method"}, "[15]": {"test_system": "RAC-beta serine/threonine-protein kinase (Homo sapiens), P31751 [S474D]", "assay": "Inhibition of recombinant full-length human PKBbeta S474D mutant (120 to end residues) assessed as residual activity at 10 uM using GRPRTSSFAEGKK as substrate measured after 40 mins in presence of [gamma33P]ATP by scintillation counting method"}, "[16]": {"molecular_target": "Death-associated protein kinase 3 (Homo sapiens) (UniProt O43293)", "sequence (O43293 whole entry, looked up, the tested form may be a part)": "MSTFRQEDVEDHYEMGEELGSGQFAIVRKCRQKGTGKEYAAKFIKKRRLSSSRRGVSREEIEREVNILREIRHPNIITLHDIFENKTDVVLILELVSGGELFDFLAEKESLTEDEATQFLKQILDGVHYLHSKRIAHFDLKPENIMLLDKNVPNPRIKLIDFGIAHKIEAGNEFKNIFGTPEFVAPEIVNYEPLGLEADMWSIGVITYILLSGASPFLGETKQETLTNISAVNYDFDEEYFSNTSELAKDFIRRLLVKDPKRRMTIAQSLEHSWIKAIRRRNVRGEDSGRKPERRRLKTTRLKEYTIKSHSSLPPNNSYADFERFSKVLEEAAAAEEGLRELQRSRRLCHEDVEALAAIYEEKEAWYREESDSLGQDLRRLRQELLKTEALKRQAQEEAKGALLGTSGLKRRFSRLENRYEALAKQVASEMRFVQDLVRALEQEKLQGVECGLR", "assay": "Inhibition of human ZIPK (1 to 290 residues) using KKLNRTLSFAEPG as substrate measured after 40 mins in presence of [gamma33P]ATP by scintillation counting method", "set-up": "scale not given: the % may be the effect or the level left"}, "[17]": {"molecular_target": "Serine/threonine-protein kinase 17A (Homo sapiens) (UniProt Q9UEE5)", "sequence (Q9UEE5 whole entry)": "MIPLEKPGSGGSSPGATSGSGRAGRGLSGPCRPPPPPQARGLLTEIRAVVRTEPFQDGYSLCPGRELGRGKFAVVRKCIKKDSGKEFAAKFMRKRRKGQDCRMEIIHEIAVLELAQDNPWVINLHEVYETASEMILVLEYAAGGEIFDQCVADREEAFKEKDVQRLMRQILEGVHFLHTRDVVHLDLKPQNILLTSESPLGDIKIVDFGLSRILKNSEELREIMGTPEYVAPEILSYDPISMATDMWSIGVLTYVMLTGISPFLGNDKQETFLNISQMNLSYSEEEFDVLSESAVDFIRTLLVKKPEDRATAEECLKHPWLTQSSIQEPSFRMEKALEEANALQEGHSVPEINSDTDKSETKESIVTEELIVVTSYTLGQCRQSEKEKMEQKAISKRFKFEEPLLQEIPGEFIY", "assay": "Inhibition of recombinant full-length human DRAK1 assessed as residual activity at 10 uM using KKLNRTLSFAEPG as substrate measured after 40 mins in presence of [gamma33P]ATP by scintillation counting method"}, "[18]": {"test_system": "SW480", "assay": "Antiproliferative activity against human SW480 cells assessed as reduction in cell viability after 72 hrs by MTT assay", "format": "functional, cell-based", "conditions": "SW480, 72 h"}, "[19]": {"molecular_target": "Serine/threonine-protein kinase 3 (Homo sapiens) (UniProt Q13188)", "assay": "Inhibition of recombinant full-length human MST2 (2 to end residues) assessed as residual activity at 10 uM using myelin basic protein as substrate measured after 40 mins in presence of [gamma33P]ATP by scintillation counting method"}, "[20]": {"test_system": "HCT-116", "assay": "Inhibition of colony formation in human HCT116 cells at 50 nM after 14 days by crystal violet staining-based microscopic analysis", "format": "functional", "conditions": "HCT-116, 336 h"}, "[21]": {"molecular_target": "Serine/threonine-protein kinase ULK1 (Homo sapiens) (UniProt O75385)", "assay": "Inhibition of human ULK1 (1 to 314 residues) using casein as substrate measured after 40 mins in presence of [gamma33P]ATP by scintillation counting method", "set-up": "scale not given: the % may be the effect or the level left"}, "[22]": {"molecular_target": "Mitogen-activated protein kinase kinase kinase kinase 1 (Homo sapiens) (UniProt Q92918)", "sequence (Q92918 whole entry, looked up, the tested form may be a part)": "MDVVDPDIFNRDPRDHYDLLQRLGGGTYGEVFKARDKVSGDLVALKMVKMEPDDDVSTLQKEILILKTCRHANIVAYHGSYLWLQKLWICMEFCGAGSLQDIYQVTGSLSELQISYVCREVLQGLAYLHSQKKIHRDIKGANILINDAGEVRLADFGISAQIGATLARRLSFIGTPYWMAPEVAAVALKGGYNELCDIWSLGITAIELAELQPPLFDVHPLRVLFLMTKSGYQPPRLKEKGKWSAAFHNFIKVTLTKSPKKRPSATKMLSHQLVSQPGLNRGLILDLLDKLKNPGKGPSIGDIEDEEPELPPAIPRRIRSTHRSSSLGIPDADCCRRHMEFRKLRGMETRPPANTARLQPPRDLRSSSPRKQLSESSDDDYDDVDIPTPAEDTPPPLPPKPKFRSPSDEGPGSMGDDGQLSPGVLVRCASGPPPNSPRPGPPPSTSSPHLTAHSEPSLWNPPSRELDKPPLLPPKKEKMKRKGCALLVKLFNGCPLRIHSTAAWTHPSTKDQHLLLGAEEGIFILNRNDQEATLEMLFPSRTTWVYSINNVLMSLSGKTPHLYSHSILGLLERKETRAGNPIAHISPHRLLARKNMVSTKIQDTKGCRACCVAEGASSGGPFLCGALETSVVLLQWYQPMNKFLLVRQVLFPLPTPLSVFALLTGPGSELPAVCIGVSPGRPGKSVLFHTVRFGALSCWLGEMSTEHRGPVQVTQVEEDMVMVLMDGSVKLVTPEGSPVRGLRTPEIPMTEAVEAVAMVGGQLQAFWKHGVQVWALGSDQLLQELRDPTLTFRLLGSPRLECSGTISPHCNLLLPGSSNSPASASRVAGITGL", "assay": "Inhibition of recombinant human HPK1 (1 to 346 residues) assessed as residual activity at 10 uM using myelin basic protein as substrate measured after 40 mins in presence of [gamma33P]ATP by scintillation counting method"}, "[23]": {"molecular_target": "[Pyruvate dehydrogenase (acetyl-transferring)] kinase isozyme 4, mitochondrial (Homo sapiens) (UniProt Q16654)", "assay": "Inhibition of recombinant full-length human PDHK4 assessed as residual activity at 10 uM using KKKYHGHSMSDPGVSYRT as substrate measured after 40 mins in presence of [gamma33P]ATP by scintillation counting method"}, "[24]": {"molecular_target": "Serine/threonine-protein kinase PLK2 (Homo sapiens) (UniProt Q9NYY3)", "sequence (Q9NYY3 whole entry, looked up, the tested form may be a part)": "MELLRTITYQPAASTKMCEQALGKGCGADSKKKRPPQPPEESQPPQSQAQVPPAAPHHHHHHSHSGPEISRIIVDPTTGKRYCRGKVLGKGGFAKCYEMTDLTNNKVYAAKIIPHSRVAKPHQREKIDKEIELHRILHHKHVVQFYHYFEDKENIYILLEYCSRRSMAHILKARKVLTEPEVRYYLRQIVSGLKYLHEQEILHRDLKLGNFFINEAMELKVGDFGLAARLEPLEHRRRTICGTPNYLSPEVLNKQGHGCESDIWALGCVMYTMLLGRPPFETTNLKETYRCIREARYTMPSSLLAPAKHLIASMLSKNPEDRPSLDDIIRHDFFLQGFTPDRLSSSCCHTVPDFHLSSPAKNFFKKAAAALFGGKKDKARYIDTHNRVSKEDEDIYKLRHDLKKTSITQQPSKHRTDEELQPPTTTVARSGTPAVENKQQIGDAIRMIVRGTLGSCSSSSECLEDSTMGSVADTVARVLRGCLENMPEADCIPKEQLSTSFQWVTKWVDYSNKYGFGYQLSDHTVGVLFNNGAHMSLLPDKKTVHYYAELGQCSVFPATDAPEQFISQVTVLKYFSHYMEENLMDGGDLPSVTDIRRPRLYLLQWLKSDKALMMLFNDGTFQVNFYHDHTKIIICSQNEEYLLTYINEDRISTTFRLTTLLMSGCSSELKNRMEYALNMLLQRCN", "assay": "Inhibition of human Snk (65 to 409 residues) using casein as substrate measured after 40 mins in presence of [gamma33P]ATP by scintillation counting method", "set-up": "scale not given: the % may be the effect or the level left"}}, "data": [{"smiles": "Cc1cc(C)c(CNc2nc(Cl)nc3c2ncn3C2CCCC2)c(=O)[nH]1", "values": [{"measurement": "Activity", "setting": "[1]", "result": 108, "unit": "%"}, {"measurement": "Activity", "setting": "[2]", "result": 130, "unit": "%"}, {"measurement": "Activity", "setting": "[3]", "result": 104, "unit": "%"}, {"measurement": "Activity", "setting": "[4]", "result": 106, "unit": "%"}, {"measurement": "Activity", "setting": "[5]", "result": 102, "unit": "%"}, {"measurement": "Activity", "setting": "[6]", "result": 104, "unit": "%"}, {"measurement": "Activity", "setting": "[7]", "result": 7.59, "unit": "%"}, {"measurement": "Activity", "setting": "[8]", "result": 93.5, "unit": "%"}, {"measurement": "Activity", "setting": "[9]", "result": 109, "unit": "%"}, {"measurement": "Activity", "setting": "[10]", "result": 116, "unit": "%"}, {"measurement": "Activity", "setting": "[11]", "result": 104, "unit": "%"}, {"measurement": "Activity", "setting": "[12]", "result": 104, "unit": "%"}, {"measurement": "Activity", "setting": "[13]", "result": 119, "unit": "%"}, {"measurement": "Activity", "setting": "[14]", "result": 113, "unit": "%"}, {"measurement": "Activity", "setting": "[15]", "result": 114, "unit": "%"}, {"measurement": "Activity", "setting": "[16]", "result": 110, "unit": "%"}, {"measurement": "Activity", "setting": "[17]", "result": 91.5, "unit": "%"}, {"measurement": "IC50", "setting": "[18]", "result": 64.5, "unit": "nM"}, {"measurement": "Activity", "setting": "[19]", "result": 110, "unit": "%"}, {"measurement": "inhibition at 0.05 µM", "setting": "[20]", "result": 100, "unit": "%"}, {"measurement": "Activity", "setting": "[21]", "result": 104, "unit": "%"}, {"measurement": "Activity", "setting": "[22]", "result": 106, "unit": "%"}, {"measurement": "Activity", "setting": "[23]", "result": 95, "unit": "%"}, {"measurement": "Activity", "setting": "[24]", "result": 106, "unit": "%"}]}]}
